# Results: patent US6875847B1, “Linoleate and linolenate-lipoxygenase mutants” (Institut fur Pflanzenbiochemie IPE, priority 1999, dated 2005)
# Target: T1, Cucumis sativus (cucumber) lipid body lipoxygenase (cslbLOX, 13-LOX), wild type, X92890, FIG. 5 (Cucumis sativus, UniProt Q42710)
# T1 sequence (Q42710 1-878): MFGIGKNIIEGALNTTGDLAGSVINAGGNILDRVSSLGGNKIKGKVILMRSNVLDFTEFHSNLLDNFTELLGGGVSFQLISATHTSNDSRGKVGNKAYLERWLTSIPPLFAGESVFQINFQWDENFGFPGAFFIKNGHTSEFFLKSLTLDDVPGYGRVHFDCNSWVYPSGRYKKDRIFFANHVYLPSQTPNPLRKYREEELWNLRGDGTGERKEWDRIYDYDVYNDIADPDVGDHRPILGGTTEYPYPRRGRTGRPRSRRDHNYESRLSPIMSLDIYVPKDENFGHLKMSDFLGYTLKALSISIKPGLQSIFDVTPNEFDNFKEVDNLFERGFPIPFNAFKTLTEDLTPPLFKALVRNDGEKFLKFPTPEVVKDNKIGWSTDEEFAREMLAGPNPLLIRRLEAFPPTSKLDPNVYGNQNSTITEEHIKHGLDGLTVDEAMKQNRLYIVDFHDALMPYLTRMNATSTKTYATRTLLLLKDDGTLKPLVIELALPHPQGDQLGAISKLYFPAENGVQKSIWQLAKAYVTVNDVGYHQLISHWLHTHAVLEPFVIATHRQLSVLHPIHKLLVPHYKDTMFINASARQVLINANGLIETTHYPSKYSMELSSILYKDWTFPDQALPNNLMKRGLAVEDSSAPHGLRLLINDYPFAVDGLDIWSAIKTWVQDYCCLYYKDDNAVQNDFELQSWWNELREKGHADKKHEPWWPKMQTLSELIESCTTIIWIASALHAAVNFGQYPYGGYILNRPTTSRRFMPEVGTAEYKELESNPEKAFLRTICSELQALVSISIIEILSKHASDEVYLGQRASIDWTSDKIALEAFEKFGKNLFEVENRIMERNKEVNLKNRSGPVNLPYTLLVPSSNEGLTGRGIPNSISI
# Test: Kinetic characterization of wild-type LOX (13-LOX) with LA
# Type: biochemical
# Details: 23 points measured between 100 μM and 250 μM LA
# Procedure: For the bacterial expression of wild-type LOX and for directed mutagenesis the plasmid pQE-30 (Qiagen, Hilden, Germany), which contained the cDNA of the LOX from lipid bodies of cucumber cotyledons as an insert (LOXpQE 30: cf. Feussner, I., Bachmann, A., Höhne, M. & Kindl, H. (1998) FEBS Lett. 431, 433-436) was used. The mutagenesis was carried out with the aid of the QuikChange Mutagenesis Kit from Stratagene (Heidelberg, Germany). Oligonucleotides with the appropriate base exchanges were obtained from MWG-Biotech (Ebersberg, Germany). For the analysis of the mutations further conservative base exchange was initiated in order to create new restriction division sites or to delete existing ones. In addition all the mutations were sequenced and at least three different bacterial clones expressed and used for the investigation of enzymatic properties. The expression of LOXpQE-30 and all the mutations was carried out according to Feussner, I., Bachmann, A., Höhne, M. & Kindl, H. (1998) FEBS Left. 431, 433-436. Cells from 1-liter cultures were resuspended in 5 to 7 ml lysis buffer and with the aid of an ultrasound needle broken up with pulses each of 30 seconds, and the cell debris made into pellets. The affinity purification of the polyHis-extended LOX was carried out as previously described (cf. Feussner, I., Bachmann, A., Höhne, M. & Kindl, H. (1998) FEBS Lett. 431, 433436).
smiles,measurement,value
"CCCCC/C=C\C/C=C\CCCCCCCC(=O)O [LA, linoleic acid]",Km,115 µM
same,LA turnover at Vmax condition (substrate saturation),12 s⁻¹
